Data from US20130111611A1, “METHOD TO MEASURE THE METABOLIC RATE OR RATE OF GLUCOSE CONSUMPTION OF CELLS OR TISSUES WITH HIGH SPATIOTEMPORAL RESOLUTION USING A GLUCOSE NANOSENSOR” (CARNEGIE, INSTITUTION OF WASHINGTON, priority 2010, published 2013).

Tested on: cultured astrocytes
Assay: Intracellular glucose and glycolytic rate in cultured astrocytes with FRET glucose nanosensor (ITM)
Assay type: cell-based, mouse
Settings: for effect on the intracellular concentration of glucose: cultured astrocytes exposed to the compound, FIG. 3a; for glycolytic rate obtained with the GLUT inhibitor: cultured astrocytes, n=20 cells in three paired experiments, not significantly different between inhibitors
From the text: In another embodiment, the disruption of the glucose steady-state can be attained by blocking the glucose transporter GLUT with a suitable inhibitor (ITM).
Independent of the embodiment of the method used to disrupt the steady-state, the rate of glycolysis is estimated by fitting a monoexponential function to the time course of decay. In one embodiment, the metabolic rate is computed from the rate of glucose concentration decrease at the point when the intracellular concentration becomes equal to the extracellular concentration, for instance at 0.3 mM (interrupted line in FIG. 2b). In a second embodiment, in the presence of a GLUT blocker, the metabolic rate is computed from the rate of glucose concentration decrease at any glucose concentration.
Animals used were mixed F1 male mice (C57BU6J×CBA/J), kept in an animal room under SPF conditions at a room temperature of 20±2° C., in a 12/12 h light/dark cycle with free access to food and water. All experiments were approved by the Centro de Estudios Científicos Animal Care and Use Committee. Mixed cortical cultures of neuronal and glial cells were prepared from 1-3 day-old neonatal mice as described in Loaiza et al.^19, except that N1-N2/MEM was replaced by B27-supplemented Neurobasal medium (Gibco). Cultures were maintained at 37° C. in a humidified atmosphere of 5% CO2. At days 5-7, cultures in 35 mm dishes were transfected with 5 μg plasmid DNA using Lipofectamine 2000 (Gibco) or alternatively, exposed to 5×10^6 PFU of adenoviral vector.
Experiments were carried out at room temperature (22-25° C.). Cultured cells were imaged in HEPES-buffered saline containing (in mM): 136 NaCl, 3 KCl, 1.25 CaCl2, 1.25 MgSO4, 1-2 glucose, 2 sodium lactate, 10 HEPES, pH 7.4 or in 95% O2/5% CO2-gassed buffer of the following composition (in mM): 112 NaCl, 3 KCl, 1.25 CaCl2, 1.25 MgCl2, 1-2 glucose, 2 sodium lactate, 10 HEPES, 24 NaHCO3, pH 7.4. Brain slices were superfused with a 95% O2/5% CO2-gassed buffer containing (in mM): 126 NaCl, 3 KCl, 1.25 NaH2PO4, 1.25 CaCl2, 1.25 MgCl2, 2-3 glucose, 1 sodium lactate, 26 NaHCO3, pH 7.4. When using higher K^+ concentrations, NaCl was adjusted to maintain isotonicity. Cultures and slices were imaged with an Olympus IX70 inverted microscope equipped with a 40× oil-immersion objective, a Cairn monochromator with Optosplit (Faversham, UK), and a Hamamatsu Orca camera (Hamamatsu City, Japan) controlled by Kinetics software. For FRET measurements, CFP was excited at 430 nm for 400 ms. Because of the very high FRET efficiency of FLII12 Pglu600μ ? , which results in low CFP signal^7, we opted for not using the CFP signal in our protocol. Instead, YFP/citrine was excited for 50 ms, which provided a sugar-insensitive denominator for the FRET ratio. […]

Row | SMILES | effect on the intracellular concentration of glucose | glycolytic rate obtained with the GLUT inhibitor [µM/s]
1 | C=C1[C@@H](C)[C@H]2[C@H](Cc3ccccc3)NC(=O)[C@]23OC(=O)/C=C/[C@H](O)CCC[C@@H](C)C/C=C/[C@H]3[C@@H]1O [cytochalasin B] | linear decrease in the concentration of glucose | 1.8 ± 0.3
2 | C=C1[C@@H](C)[C@H]2[C@H](Cc3ccccc3)NC(=O)[C@]23[C@H](OC(C)=O)/C=C/[C@@](C)(O)C(=O)[C@@H](C)C/C=C/[C@H]3[C@@H]1O [cytochalasin D] | did not affect the concentration of glucose | 
3 | O=C(CCc1ccc(O)cc1)c1c(O)cc(O)cc1O [Phloretin] |  | 1.7 ± 0.3
